Paper PMC10066365, “Nemacol is a small molecule inhibitor of C. elegans vesicular acetylcholine transporter with anthelmintic potential” (Nature Communications, 2023)
Several values for one entry are separate records, joined by “and”; a condition that tells them apart may be missing. Equal entries are not always repeated.

How the values were obtained:
[1] = test system: Dirofilaria immitis L3/L4; assay: Dirofilaria immitis L3/L4 motility assay (DiroImager, 72 h); conditions: Dirofilaria immitis L4
C. elegans = C. elegans motor phenotype scoring on solid media (Punc/jerky-unc, coiled, paralyzed), wild-type young adults; type: in vivo, Caenorhabditis elegans; conditions: for EC50: Caenorhabditis elegans, any motor phenotype after 1 h on solid media, ± 95% CI, read-out: C. elegans - motor disruption EC50; for atypical locomotion (number of animals) / coiled (number of animals) / no phene (number of animals) / paralyzed (number of animals): young adults, 20 animals per trial
[2] = test system: Dirofilaria immitis microfilariae; assay: Dirofilaria immitis microfilariae immobility assay (DiroImager, 72 h); conditions: Dirofilaria immitis microfilariae
Method in brief: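 About 250 freshly purified microfilariae of the Missouri isolate per well in supplemented RPMI 1640, exposed to compound for 72 h. Motility scored by automated whole-plate optical imaging; medium with 1% DMSO as negative control.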

Pristionchus pacificus = Pristionchus pacificus motor disruption dose-response on solid media, 1 h; conditions: for mean % any phene (coiled, jerky-Unc or paralyzed): Pristionchus pacificus young adults, mean of three biological replicates; for EC50: Pristionchus pacificus, 1 h, read-out: P. pacificus motor disruption EC50; for rep 1 atypical locomotion / rep 1 coiled / rep 1 no phene / rep 1 paralyzed / rep 2 atypical locomotion / rep 2 coiled / rep 2 no phene / rep 2 paralyzed: count of 20 animals per trial, one hour
[3] = conc 3.75, observed at one hour
[4] = 3.75uM, one hour, single technical replicate
[5] = 15uM, one hour, single technical replicate
[6] = 15uM, one hour, mean of three biological replicates
[7] = 60uM, one hour, single technical replicate
[8] = 3.75uM, one hour, single replicate counts
[9] = 15uM, one hour, single replicate counts
[10] = 60uM, one hour, single replicate counts

CC1CCC(N2CCN(c3ccc(Cl)cc3)CC2)C1 (stereo not drawn) [Nemacol-44]
% effect (motility), DIROIM L4 ([1]; 2 µM): 0%
% effect (motility), DIROIM L4 ([1]; 10 µM): 0%
% effect (motility), DIROIM L4 ([1]; 50 µM): 10%
any phene (mean % fraction of young adults exhibiting any phenotype: coiled, jerky-Unc or paralyzed) (C. elegans; 3.75uM, one hour, mean of three biological replicates, third c14 line of each analog): 80%
any phene (mean % fraction of young adults exhibiting any phenotype: coiled, jerky-Unc or paralyzed) (C. elegans; 15uM, one hour, mean of three biological replicates, second c14 line of each analog): 100%
any phene (mean % fraction of young adults exhibiting any phenotype: coiled, jerky-Unc or paralyzed) (C. elegans; 60uM, one hour, mean of three biological replicates, first c14 line of each analog): 100%
EC50 (C. elegans): 3.4 µM
% effect (motility), DIROIM MF ([2]; 0.016 µM): 0%
% effect (motility), DIROIM MF ([2]; 0.08 µM): 0%
% effect (motility), DIROIM MF ([2]; 0.4 µM): 0%
% effect (motility), DIROIM MF ([2]; 2 µM): 0%
% effect (motility), DIROIM MF ([2]; 10 µM): 0%
mean % any phene (coiled, jerky-Unc or paralyzed) (Pristionchus pacificus; [3]): 63.3333%
mean % any phene (coiled, jerky-Unc or paralyzed) (Pristionchus pacificus; conc 15, observed at one hour): 90.7456%
mean % any phene (coiled, jerky-Unc or paralyzed) (Pristionchus pacificus; conc 60, observed at one hour): 100%
EC50 (Pristionchus pacificus): 2.5 ± 1 µM
rep 1 atypical locomotion (Pristionchus pacificus; conc 3.75): 3
rep 1 coiled (Pristionchus pacificus; conc 3.75): 0
rep 1 no phene (Pristionchus pacificus; conc 3.75): 17
rep 1 paralyzed (Pristionchus pacificus; conc 3.75): 0
rep 2 atypical locomotion (Pristionchus pacificus; conc 3.75): 10
rep 2 coiled (Pristionchus pacificus; conc 3.75): 8
rep 2 no phene (Pristionchus pacificus; conc 3.75): 2
rep 2 paralyzed (Pristionchus pacificus; conc 3.75): 0
rep 1 atypical locomotion (Pristionchus pacificus; conc 15): 13
rep 1 coiled (Pristionchus pacificus; conc 15): 7
rep 1 no phene (Pristionchus pacificus; conc 15): 0
rep 1 paralyzed (Pristionchus pacificus; conc 15): 0
rep 2 atypical locomotion (Pristionchus pacificus; conc 15): 0
rep 2 coiled (Pristionchus pacificus; conc 15): 14
rep 2 no phene (Pristionchus pacificus; conc 15): 0
rep 2 paralyzed (Pristionchus pacificus; conc 15): 6
rep 1 atypical locomotion (Pristionchus pacificus; conc 60): 2
rep 1 coiled (Pristionchus pacificus; conc 60): 5
rep 1 no phene (Pristionchus pacificus; conc 60): 0
rep 1 paralyzed (Pristionchus pacificus; conc 60): 13
rep 2 atypical locomotion (Pristionchus pacificus; conc 60): 1
rep 2 coiled (Pristionchus pacificus; conc 60): 7
rep 2 no phene (Pristionchus pacificus; conc 60): 0
rep 2 paralyzed (Pristionchus pacificus; conc 60): 12

Fc1ccc(N2CCN(C3CCCCCC3)CC2)cc1 [Nemacol-51]
% effect (motility), DIROIM L4 ([1]; 10 µM): 0%
% effect (motility), DIROIM L4 ([1]; 50 µM): 10%
atypical locomotion (number of animals) (C. elegans; [4]): 7 and 4 and 2 and 14 and 17
coiled (number of animals) (C. elegans; [4]): 0 and 4 and 2
no phene (number of animals) (C. elegans; [4]): 13 and 16 and 18 and 2 and 1
paralyzed (number of animals) (C. elegans; [4]): 0
atypical locomotion (number of animals) (C. elegans; [5]): 13 and 14 and 15 and 6 and 7
coiled (number of animals) (C. elegans; [5]): 1 and 3 and 5 and 2 and 8
no phene (number of animals) (C. elegans; [5]): 6 and 2 and 3 and 0
paralyzed (number of animals) (C. elegans; [5]): 0 and 1 and 6 and 8
any phene: mean % fraction of young adults exhibiting any phenotype (coiled, jerky-Unc or paralyzed) (C. elegans; [6]): 89.1667%
atypical locomotion (number of animals) (C. elegans; [7]): 3 and 1 and 4 and 0
coiled (number of animals) (C. elegans; [7]): 14 and 17 and 11 and 15
no phene (number of animals) (C. elegans; [7]): 0
paralyzed (number of animals) (C. elegans; [7]): 3 and 2 and 5
EC50 (C. elegans): 4.2 ± 2.3 µM
% effect (motility), DIROIM MF ([2]; 0.016 µM): 0%
% effect (motility), DIROIM MF ([2]; 0.08 µM): 0%
% effect (motility), DIROIM MF ([2]; 0.4 µM): 0%
% effect (motility), DIROIM MF ([2]; 2 µM): 0%
% effect (motility), DIROIM MF ([2]; 10 µM): 0%
mean % any phene (coiled, jerky-Unc or paralyzed) (Pristionchus pacificus; [3]): 2.5%
mean % any phene (coiled, jerky-Unc or paralyzed) (Pristionchus pacificus; conc 15, observed at one hour): 60%
mean % any phene (coiled, jerky-Unc or paralyzed) (Pristionchus pacificus; conc 60, observed at one hour): 85%
EC50 (Pristionchus pacificus): 13.2 ± 3 µM

CCN1CCN(CC2CCCCC2)CC1 [Nemacol-11]
% effect (motility), DIROIM L4 ([1]; 2 µM): 10%
% effect (motility), DIROIM L4 ([1]; 10 µM): 5%
% effect (motility), DIROIM L4 ([1]; 50 µM): 0%
any phene, mean % fraction of young adults exhibiting any phenotype (coiled, jerky-Unc or paralyzed) (C. elegans; 3.75uM, one hour, mean of three biological replicates): 3.333%
atypical locomotion (number of animals) (C. elegans; [8]): 0 and 3 and 1
coiled (number of animals) (C. elegans; [8]): 0
no phene (number of animals) (C. elegans; [8]): 20 and 17 and 19
paralyzed (number of animals) (C. elegans; [8]): 0
any phene, mean % fraction of young adults exhibiting any phenotype (coiled, jerky-Unc or paralyzed) (C. elegans; [6]): 6.667%
atypical locomotion (number of animals) (C. elegans; [9]): 0 and 5 and 3
coiled (number of animals) (C. elegans; [9]): 0
no phene (number of animals) (C. elegans; [9]): 20 and 15 and 17
paralyzed (number of animals) (C. elegans; [9]): 0
any phene, mean % fraction of young adults exhibiting any phenotype (coiled, jerky-Unc or paralyzed) (C. elegans; 60uM, one hour, mean of three biological replicates): 19.1667%
atypical locomotion (number of animals) (C. elegans; [10]): 1 and 0 and 13 and 9
coiled (number of animals) (C. elegans; [10]): 0
no phene (number of animals) (C. elegans; [10]): 19 and 20 and 7 and 11
paralyzed (number of animals) (C. elegans; [10]): 0
EC50 (C. elegans): > 60 µM
% effect (motility), DIROIM MF ([2]; 0.016 µM): 0%
% effect (motility), DIROIM MF ([2]; 0.08 µM): 0%
% effect (motility), DIROIM MF ([2]; 0.4 µM): 0%
% effect (motility), DIROIM MF ([2]; 2 µM): 0%
% effect (motility), DIROIM MF ([2]; 10 µM): 0%
mean % any phene (coiled, jerky-Unc or paralyzed) (Pristionchus pacificus; [3]): 0%
mean % any phene (coiled, jerky-Unc or paralyzed) (Pristionchus pacificus; conc 15, observed at one hour): 0%
mean % any phene (coiled, jerky-Unc or paralyzed) (Pristionchus pacificus; conc 60, observed at one hour): 3.333%
EC50 (Pristionchus pacificus): > 60 µM
